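Where inhibition never reached the appropriate level, the endpoint shown equals the highest concentration tested. Otherwise, values were interpolated linearly from a five-concentration, 48-hour dose response in 96-well plates. Abbreviation: GI50, concentration required for 50% inhibition of growth.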 The source made the active and inactive calls. No stated cut-off is given here; in the data, active = GI50 up to about 1.1 µM and inactive = higher.
Legend:
Assay in all cases: growth of human tumour cells (NCI), 48 h
HT-29 = tested on: HT-29
OVCAR-3 = tested on: OVCAR-3
SF-268 = tested on: SF-268
HOP-62 = tested on: HOP-62
OVCAR-5 = tested on: OVCAR-5
A498 = tested on: A498
NCI-H23 = tested on: NCI-H23
LXFL 529 = tested on: LXFL 529
EKVX = tested on: EKVX
U-251 = tested on: U-251
ACHN = tested on: ACHN
RXF 393 = tested on: RXF 393
HCT-116 = tested on: HCT-116
SNB-75 = tested on: SNB-75
BT-549 = tested on: BT-549
MCF7 = tested on: MCF7
MDA-N = tested on: MDA-N
T47D = tested on: T47D
Hs-578T = tested on: Hs-578T
SR = tested on: SR

Measured: GI50

Nc1ncnc2c1ncn2C1OC(CSCc2ccc(Cl)cc2)C(O)C1O (stereo not drawn)
inactive: HT-29 22.1 µM | OVCAR-3 32.1 µM | SF-268 40.1 µM | HOP-62 17 µM | OVCAR-5 > 100 µM | A498 23.8 µM | NCI-H23 24.2 µM | LXFL 529 17.2 µM | EKVX 81.7 µM | U-251 66.2 µM | ACHN 34.9 µM | RXF 393 21.2 µM | HCT-116 19.8 µM | SNB-75 18.3 µM

CC1=CC(O)(c2ccc(-c3ccccc3Cl)cc2)OC1=O (stereo not drawn)
inactive: HT-29 > 100 µM | OVCAR-3 > 100 µM | SF-268 > 100 µM | HOP-62 > 100 µM | OVCAR-5 > 100 µM | NCI-H23 > 100 µM | LXFL 529 > 100 µM | EKVX > 100 µM | U-251 > 100 µM | ACHN > 100 µM | RXF 393 > 100 µM | SNB-75 43.1 µM

COC1(C)CNCC(C)(C)NC(=O)C(C)(OC)CNCC(C)(C)NC1=O (stereo not drawn)
inactive: HT-29 > 100 µM | OVCAR-3 > 100 µM | SF-268 > 100 µM | HOP-62 > 100 µM | OVCAR-5 > 100 µM | A498 > 100 µM | NCI-H23 > 100 µM | LXFL 529 > 100 µM | EKVX > 100 µM | U-251 > 100 µM | ACHN > 100 µM | RXF 393 > 100 µM | HCT-116 > 100 µM | SNB-75 > 100 µM

O=[N+]([O-])/C(Cl)=C(\NCCO)C(Cl)=C(Cl)Cl
inactive: HT-29 57 µM | OVCAR-3 60.4 µM | SF-268 87.9 µM | HOP-62 > 100 µM | OVCAR-5 > 100 µM | BT-549 > 79.8 µM | A498 > 100 µM | NCI-H23 72.1 µM | EKVX > 100 µM | MCF7 52 µM | MDA-N 55.5 µM | U-251 > 93.3 µM | T47D 57.7 µM | ACHN 89.5 µM | RXF 393 56.1 µM | Hs-578T > 65.5 µM | SR 20.5 µM | HCT-116 45.2 µM | SNB-75 > 80.2 µM

COc1c(O)cc2oc(-c3ccc(O)cc3)cc(=O)c2c1O [HISPIDULIN]
inactive: HT-29 45.7 µM | OVCAR-3 44.1 µM | SF-268 46.6 µM | HOP-62 46.7 µM | OVCAR-5 75.2 µM | BT-549 28.3 µM | A498 2.57 µM | NCI-H23 42.2 µM | EKVX 8.07 µM | MCF7 52 µM | MDA-N 37.2 µM | U-251 42.7 µM | T47D 33.4 µM | ACHN 26.8 µM | RXF 393 51.5 µM | Hs-578T 18.9 µM | SR 27.9 µM | HCT-116 35.3 µM | SNB-75 17.3 µM

O=C(c1ccccc1)N1C2C3CC(OCc4ccccc4)(OCc4ccccc4)C(O3)C21 (stereo not drawn)
inactive: SF-268 > 100 µM | HOP-62 > 100 µM | OVCAR-5 > 100 µM | A498 > 100 µM | NCI-H23 > 100 µM | LXFL 529 > 100 µM | EKVX > 100 µM | U-251 > 100 µM | ACHN > 100 µM | RXF 393 > 100 µM | HCT-116 > 100 µM | SNB-75 > 100 µM

Nc1ccc2nc3n(c(=O)c2c1)CCCCC3
inactive: HT-29 > 100 µM | OVCAR-3 > 100 µM | SF-268 > 100 µM | HOP-62 > 100 µM | OVCAR-5 > 100 µM | BT-549 89.9 µM | A498 > 100 µM | NCI-H23 > 100 µM | EKVX > 100 µM | MCF7 > 100 µM | MDA-N > 100 µM | U-251 > 100 µM | T47D > 100 µM | ACHN > 100 µM | RXF 393 > 100 µM | Hs-578T > 100 µM | SR > 100 µM | HCT-116 > 100 µM | SNB-75 > 100 µM

CCOC(=O)/C=C1\C[C@H](NC(=O)OCc2ccccc2)C(=O)N1CC(=O)OCC
inactive: HT-29 > 100 µM | OVCAR-3 > 100 µM | SF-268 > 100 µM | HOP-62 > 100 µM | OVCAR-5 > 100 µM | BT-549 > 100 µM | A498 > 100 µM | NCI-H23 > 100 µM | EKVX > 100 µM | MCF7 > 100 µM | MDA-N > 100 µM | U-251 > 100 µM | T47D > 100 µM | ACHN > 100 µM | RXF 393 61.2 µM | Hs-578T > 100 µM | SR > 100 µM | HCT-116 > 100 µM | SNB-75 > 100 µM
